In PubChem BioAssay AID1259407 (Chemical Carcinogenesis Research Information System (CCRIS), 2018):
Active and inactive are the calls of the source. No rule for the calls is given here.

Test system: CCRIS mutagenicity, Ames/micronucleus/aberration tests
Test: CCRIS mutagenicity studies
Conditions: Test System: AMES SALMONELLA TYPHIMURIUM

Nc1ccc2cc3ccccc3cc2c1
mutagenic call (Strain/Indicator: NM2000, Metabolic Activation: RAT, LIVER, S-9, AROCLOR 1254, Method: PREINCUBATION): active; positive
mutagenic call (Strain/Indicator: NM2009, Metabolic Activation: RAT, LIVER, S-9, AROCLOR 1254, Method: PREINCUBATION): active; positive
mutagenic call (Strain/Indicator: TA97, Metabolic Activation: NONE, Method: STANDARD PLATE): inactive; negative
mutagenic call (Strain/Indicator: TA97, Metabolic Activation: RAT, LIVER, S-9, AROCLOR 1254, Method: STANDARD PLATE): active; positive
mutagenic call (Strain/Indicator: TA97A, Metabolic Activation: RAT, LIVER, S-9, AROCLOR 1254, Method: STANDARD PLATE): active; positive
mutagenic call (Strain/Indicator: TA98 (1,8-DNP6), Metabolic Activation: RAT LIVER, CYTOSOL, AROCLOR 1254, Method: STANDARD PLATE): active; positive
mutagenic call (Strain/Indicator: TA98 (1,8-DNP6), Metabolic Activation: RAT LIVER, MICROSOMES, AROCLOR 1254, Method: STANDARD PLATE): active; positive
mutagenic call (Strain/Indicator: TA98, Metabolic Activation: FERRET, LIVER, CYTOSOL, Method: STANDARD PLATE): inactive; negative
mutagenic call (Strain/Indicator: TA98, Metabolic Activation: FERRET, LIVER, MICROSOMES, Method: STANDARD PLATE): active; positive
mutagenic call (Strain/Indicator: TA98, Metabolic Activation: HAMSTER, LIVER, CYTOSOL, Method: STANDARD PLATE): inactive; negative
mutagenic call (Strain/Indicator: TA98, Metabolic Activation: HAMSTER, LIVER, MICROSOMES, Method: STANDARD PLATE): active; positive
mutagenic call (Strain/Indicator: TA98, Metabolic Activation: HUMAN, LIVER, CYTOSOL, Method: STANDARD PLATE): active; positive
mutagenic call (Strain/Indicator: TA98, Metabolic Activation: HUMAN, RED BLOOD CELL, CYTOSOL, Method: PREINCUBATION): active; positive
mutagenic call (Strain/Indicator: TA98, Metabolic Activation: NONE, Method: SPIRAL ASSAY): inactive; negative
mutagenic call (Strain/Indicator: TA98, Metabolic Activation: PIG, LIVER, CYTOSOL, Method: STANDARD PLATE): inactive; negative
mutagenic call (Strain/Indicator: TA98, Metabolic Activation: PIG, LIVER, MICROSOMES, Method: STANDARD PLATE): active; positive
mutagenic call (Strain/Indicator: TA98, Metabolic Activation: RAT LIVER, CYTOSOL, AROCLOR 1254, Method: STANDARD PLATE): active; positive
mutagenic call (Strain/Indicator: TA98, Metabolic Activation: RAT LIVER, MICROSOMES, AROCLOR 1254, Method: STANDARD PLATE): active; positive
mutagenic call (Strain/Indicator: TA98, Metabolic Activation: RAT, LIVER, CYTOSOL, Method: STANDARD PLATE): inactive; negative
mutagenic call (Strain/Indicator: TA98, Metabolic Activation: RAT, LIVER, MICROSOMES, Method: STANDARD PLATE): active; positive
mutagenic call (Strain/Indicator: TA98, Metabolic Activation: RAT, LIVER, S-9, AROCLOR 1254 (0.5, 1, 2 OR 4%), Method: STANDARD PLATE): active; positive
mutagenic call (Strain/Indicator: TA98, Metabolic Activation: RAT, LIVER, S-9, AROCLOR 1254, Method: SPIRAL ASSAY): active; positive
mutagenic call (Strain/Indicator: TA98, Metabolic Activation: RAT, LIVER, S-9, AROCLOR 1254 OR PHENOBARBITOL, Method: STANDARD PLATE): active; positive
mutagenic call (Strain/Indicator: TA98, Metabolic Activation: RAT, LIVER, S-9, PHENOBARBITAL, Method: STANDARD PLATE): active; positive
mutagenic call (Strain/Indicator: TA100, Metabolic Activation: MOUSE, LIVER, MICROSOMES, BENZO[E]PYRENE AND TCDD, Method: STANDARD PLATE): active; positive
mutagenic call (Strain/Indicator: TA100, Metabolic Activation: NONE, Method: SPIRAL ASSAY): inactive; negative
mutagenic call (Strain/Indicator: TA100, Metabolic Activation: RAT, LIVER, PARENCHYMAL CELLS (FRESHLY ISOLATED OR STORED FOR 1 D OR CRYOPRESERVED), Method: PREINCUBATION): active; positive
mutagenic call (Strain/Indicator: TA100, Metabolic Activation: RAT, LIVER, S-9, AROCLOR 1254 (2%), Method: STANDARD PLATE): active; positive
mutagenic call (Strain/Indicator: TA100, Metabolic Activation: RAT, LIVER, S-9, AROCLOR 1254, Method: SPIRAL ASSAY): active; positive
mutagenic call (Strain/Indicator: TA100, Metabolic Activation: RAT, LIVER, S-9, AROCLOR 1254, Method: STANDARD PLATE): active; positive
